Reference: patent publication US8759323B2, “Protein phosphatase inhibitor” (LSIP, LLC, priority 2008, dated 2014)
Read-outs that look alike come from different tables or passages of the source.

Legend:
Assay type in all cases: biochemical
[1] = molecular target: T1, PPM1D protein catalytic domain (positions 1 to 420), His tag fusion (Homo sapiens, UniProt O15297); test: PPM1D-inhibitory activity, single concentration (Test Example 1, BIOMOL GREEN free phosphate); design: dose or concentration left out as unconfirmed; details: read-out: Rate of PPM1D inhibition (: %)
T1 construct: the catalytic domain (the positions 1 to 420) of PPM1D protein; His tag; made in house; host or cells: E. coli (pColdI vector)
T1 sequence (O15297 1-420): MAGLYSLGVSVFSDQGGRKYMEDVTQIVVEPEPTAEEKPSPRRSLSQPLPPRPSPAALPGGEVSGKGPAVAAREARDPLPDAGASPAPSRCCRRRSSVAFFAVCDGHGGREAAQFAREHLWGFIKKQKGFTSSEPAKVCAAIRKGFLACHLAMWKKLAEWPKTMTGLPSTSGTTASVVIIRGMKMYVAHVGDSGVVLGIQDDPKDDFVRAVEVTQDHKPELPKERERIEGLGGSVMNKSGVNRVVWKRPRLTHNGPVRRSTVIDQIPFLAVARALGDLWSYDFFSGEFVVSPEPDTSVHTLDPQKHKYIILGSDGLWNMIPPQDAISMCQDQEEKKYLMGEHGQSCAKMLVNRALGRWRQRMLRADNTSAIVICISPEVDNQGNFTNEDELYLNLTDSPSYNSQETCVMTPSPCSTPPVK
Experimental: The PPM1D-inhibitory activity of the compound of the present invention (1) was measured.
Into a pColdI vector (TaKaRa Bio Inc.), cDNA encoding the catalytic domain (the positions 1 to 420) of PPM1D protein (Protein ID: O15297/cDNA ID: U70385) was introduced, and the PPM1D protein was expressed in E. coli as a His tag fusion protein. The protein of interest was purified by metal affinity chromatography with BD-TALON resin (CLONTECH), and then eluted with an elution buffer (150 mM imidazole, PBS (pH 7.5), 500 mM NaCl, 10% glycerol, 0.2% ethanol, and 1 mM 2-mercaptoethanol). The PPM1D protein thus eluted was dialyzed against a dialysis buffer (50 mM Tris-HCl (pH 7.5), 0.1 mM EGTA, and 0.02% 2-mercaptoethanol) for 16 hours, and then stored at −80° C. as a 50% glycerol stock (an enzyme concentration of 1 μM).
The enzyme that was expressed and purified by the aforementioned method was used for analysis of the inhibitory effect of the compound on PPM1D. […] A purified phospho-p53 peptide was dissolved in H2O to prepare a 400 μM original substrate solution. The test compound of Example 1 (inhibitor) was dissolved in ethanol (EtOH) to a concentration of 40 mM, and then diluted with dimethyl sulfoxide (DMSO) to adjust an original inhibitor solution with a concentration of 4 mM in advance. Other inhibitors were dissolved in dimethyl sulfoxide (DMSO) to prepare original inhibitor solutions with a concentration of 4 mM. 30 μL of a mixed solution of the inhibitor and the substrate (66.7 μM phosphorylated peptide substrate, […], 1.7% DMSO (in the case of Example 1, 1.5% DMSO and 0.2% EtOH), and 13 mM Tris-HCl (pH 8.0)) was kept warm at 30° C., to which 20 μL of a mixed solution of an enzyme and a metal ion kept at 4° C. (10 nM PPM1D, 125 mM Tris-HCl (pH 7.5), 0.25 mM EGTA, 0.05% 2-mercaptoethanol, and 75 mM MgCl2) was added. The resulting mixture was incubated at 30° C. for 10 minutes, and then the inhibitory activity on PPM1D was measured. The enzyme reaction was terminated with addition of 100 μL of a BIOMOL GREEN reagent (Biomol), and 30 minutes later, the absorbance at 620 nm was measured to detect phosphoric acid freed by PPM1D. The inhibitory effect on PPM1D was analyzed by measuring, from the absorbance measured at 620 nm, the amount of free phosphoric acid reduced due to the addition of the inhibitor with respect to the amount of free phosphoric acid in the case of addition of DMSO not including the inhibitor.

[2] = molecular target: T2, full length PPM1A (382 residues) (Homo sapiens, UniProt P35813); test: PPM1A inhibitory activity (Test Example 2); details: 16 nM PPM1A, phospho-p38 peptide analog substrate, MnCl2
T2 construct: cDNA encoding full length PPM1A (382 residues); His tag (inferred: same pColdI vector, purified like His-PPM1D); made in house; host or cells: E. coli (pColdI vector)
T2 sequence (P35813 1-382): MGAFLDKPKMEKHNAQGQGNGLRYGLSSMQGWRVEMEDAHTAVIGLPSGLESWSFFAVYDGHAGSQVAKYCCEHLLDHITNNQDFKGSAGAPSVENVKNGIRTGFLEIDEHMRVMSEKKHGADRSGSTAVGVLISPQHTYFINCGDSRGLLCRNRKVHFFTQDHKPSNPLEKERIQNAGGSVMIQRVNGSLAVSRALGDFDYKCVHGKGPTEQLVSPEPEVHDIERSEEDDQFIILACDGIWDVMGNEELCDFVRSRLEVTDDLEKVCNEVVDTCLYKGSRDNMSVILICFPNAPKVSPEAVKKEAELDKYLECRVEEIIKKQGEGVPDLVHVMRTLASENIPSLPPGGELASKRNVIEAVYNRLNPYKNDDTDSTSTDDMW
Experimental: In order to analyze the enzyme selectivity of the inhibitor, the inhibitory effect on PPM1A, which belongs to the PPM1 family as PPM1D does, was analyzed and compared with the inhibitory effect on PPM1D. Into a pColdI vector, cDNA encoding full length PPM1A (382 residues) (Protein ID: P35813/cDNA ID: S87759) was introduced, and the PPM1A was expressed in E. coli and then purified similarly to PPM1D. The inhibitory activity on 16 nM purified PPM1A was measured. As a substrate of PPM1A, a phospho-p38 peptide analog (Ac-Asp-Asp-Glu-Nle-Thr(P)-Gly-Tyr(P)-Val-Ala-Thr-Arg-NH2: Thr(P), Tyr(P), and Nle indicate phosphorylated Thr, phosphorylated Tyr, and norleucine, respectively) was used.
30 μL of a mixed solution of the inhibitor and the substrate (66.7 μM phosphorylated peptide substrate, each concentration of the inhibitor, 1.7% DMSO (for the test compound of Example 1, 1.5% DMSO and 0.2% EtOH), and 13 mM Tris-HCl (pH 8.0)) was kept warm at 30° C., to which 20 μL of a mixed solution of an enzyme and a metal ion kept at 4° C. (40 nM PPM1A, 125 mM Tris-HCl (pH 7.5), 0.25 mM EGTA, 0.05% 2-mercaptoethanol, and 25 mM MnCl2) was added. The resulting mixture was incubated at 30° C. for 10 minutes, and then the inhibitory activity on PPM1A was measured. […]

[3] = molecular target: T3, PPM1D (Homo sapiens, UniProt O15297); test: PPM1D IC50, inhibition constant (Ki) and selectivity (Test Example 2); details: for Ki: PPM1D, phospho-p53 (Ser 15) peptide analog substrate 5-40 μM; for IC50: inhibitor 0-40 μM, measured three times
T3 construct: the catalytic domain (the positions 1 to 420) of PPM1D protein; His tag; made in house; host or cells: E. coli (pColdI vector)
T3 sequence (O15297 1-420): T1 sequence (O15297 1-420)
Experimental: (§1) The inhibitory activity on PPM1A, PP2A, and PPM1D at each final concentration of the inhibitor (0, 0.1, 0.2, 0.4, 1, 2, 4, 10, or 40 μM) was measured three times with respect to each concentration, and the concentration of the inhibitor required for 50% inhibition of the enzyme activity (IC50) was determined.
The original inhibitor solution was diluted with a solvent (DMSO, (for the test compound of Example 1, 90% DMSO and 10% EtOH)) to prepare each concentration of an inhibitor solution.
Other conditions for measurement of the enzyme activity are the same as those in Test Example 1.
The enzyme selectivity of the inhibitor was analyzed by comparing the IC50 values of the inhibitor on PPM1D, PPM1A, and PP2A.
Also, the inhibition constant of the inhibitor (Ki) and the inhibition pattern were measured as follows.
As a substrate, a phospho-p53 (Ser 15) peptide analog (Ac-Val-Glu-Pro-Pro-Leu-Ser(P)-[…]NH2: Ser(P) indicates phosphorylated Ser) was used. 30 μL of a mixed solution of the inhibitor and the substrate (each concentration of the phosphorylated peptide substrate, each concentration of the inhibitor, 1.7% DMSO (in the case of Example 1, 1.5% DMSO and 0.2% EtOH), and 13 mM Tris-HCl (pH 8.0)) was kept warm at 30° C., to which 20 μL of a mixed solution of an enzyme and a metal ion kept at 4° C. (10 nM PPM1D, 125 mM Tris-HCl (pH 7.5), 0.25 mM EGTA, 0.05% 2-mercaptoethanol, and 75 mM MgCl2) was added. The resulting mixture was incubated at 30° C. for 10 minutes, and then the inhibitory activity on PPM1D was measured.
The activity on PPM1D was measured at each concentration of the phosphorylated peptide substrate (5, 10, 20, and 40 μM), and at each final concentration of the inhibitor (0, 0.3, 0.4, and 0.6 μM (the compound of Example 1 [Compound 1]) or 0, 0.4, and 1.2 μM (the compound of Example 5 [Compound 2]). The enzyme reaction was terminated with addition of 50 μL of a BIOMOL GREEN reagent (Biomol) to a reaction solution, and 30 minutes later, the absorbance at 620 nm was measured to detect phosphoric acid freed by PPM1D.
Based on the results thus obtained, Ki (μM) was calculated.

[4] = molecular target: T4, PP2A (Homo sapiens, UniProt P67775); test: PP2A inhibitory activity (Test Example 2); details: with addition of 40 μM inhibitor
T4 construct: purchased Promega K.K
T4 sequence (P67775 whole entry): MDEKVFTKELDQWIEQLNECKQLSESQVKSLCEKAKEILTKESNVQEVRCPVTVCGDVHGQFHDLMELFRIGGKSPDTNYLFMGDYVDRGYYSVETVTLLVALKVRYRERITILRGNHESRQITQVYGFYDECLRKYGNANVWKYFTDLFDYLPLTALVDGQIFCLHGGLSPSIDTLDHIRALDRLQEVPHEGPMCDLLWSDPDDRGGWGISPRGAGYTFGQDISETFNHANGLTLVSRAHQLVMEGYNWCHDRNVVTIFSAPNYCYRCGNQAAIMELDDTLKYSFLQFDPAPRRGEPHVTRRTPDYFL
T4 sequence (P30153 2-589 partner limits assumed): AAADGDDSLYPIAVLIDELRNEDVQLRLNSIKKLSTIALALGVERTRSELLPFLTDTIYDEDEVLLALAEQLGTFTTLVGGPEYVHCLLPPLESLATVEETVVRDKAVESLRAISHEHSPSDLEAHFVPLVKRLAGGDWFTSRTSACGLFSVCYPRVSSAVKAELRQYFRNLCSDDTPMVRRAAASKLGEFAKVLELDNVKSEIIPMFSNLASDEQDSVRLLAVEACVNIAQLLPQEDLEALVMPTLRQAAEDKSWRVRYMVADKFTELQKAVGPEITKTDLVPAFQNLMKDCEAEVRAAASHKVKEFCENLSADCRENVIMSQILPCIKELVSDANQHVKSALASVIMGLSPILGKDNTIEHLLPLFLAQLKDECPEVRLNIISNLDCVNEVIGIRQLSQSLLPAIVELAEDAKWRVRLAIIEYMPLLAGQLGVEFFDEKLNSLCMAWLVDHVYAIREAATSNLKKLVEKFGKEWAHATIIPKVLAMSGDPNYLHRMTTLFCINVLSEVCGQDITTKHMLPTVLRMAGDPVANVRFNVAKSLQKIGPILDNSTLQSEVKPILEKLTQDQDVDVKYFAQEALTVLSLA
Experimental: Also, in order to analyze the enzyme selectivity of the inhibitor within the Ser/Thr phosphatase family, the inhibitory effect on PP2A (Protein ID: P67775/cDNA ID: X12649), which belongs to the PPP family, was analyzed. PP2A was purchased from Promega K.K. As a substrate of PP2A, a phospho-p38 peptide analog (Ac-Thr-Asp-Asp-Glu-Met-Thr(P)-Gly-Tyr-Val-Ala-Thr-NH2: Thr(P) indicates phosphorylated Thr) was used. 30 μL of a mixed solution of the inhibitor and the substrate (333.3 μM phosphorylated peptide substrate, each concentration of the inhibitor, 1.7% DMSO (in the case of Example 1, 1.5% DMSO and 0.2% EtOH), and 13 mM Tris-HCl (pH 8.0)) was kept warm at 30° C., to which 20 μL of a mixed solution of an enzyme and a metal ion kept at 4° C. (25 mU PP2A, 125 mM Tris-HCl (pH 7.5), 0.25 mM EGTA, 0.05% 2-mercaptoethanol, and 75 mM MgCl2) was added. The resulting mixture was incubated at 30° C. for 10 minutes, and then the inhibitory activity on PP2A was measured.
as §1, with “determined. […]” for “determined.”

[5] = phospho-p53 (Ser 15) peptide substrate, 30° C., 10 minutes, read-out: Rate of PPM1D inhibition (%)

SMILES | inhibition [1, 5] [%] | inhibition [1] [%] | further results
COC(=O)[C@]1(C)CC(=O)C[C@]2(C)[C@@H]3C[C@@H](C)C[C@@H](OC(C)=O)[C@H]3CC(=O)[C@H]21 [Comparative Example 2, reference compound] | 0 |  | 
CCOC(=O)/C=C/C12CC[C@](C)([C@@H]1CO)C2(C)C [Comparative Example 3, reference compound] | 0 |  | 
C=C1C2(/C=C/CO)CC[C@@]1(C)C2(C)C [Comparative Example 4, reference compound] | 0 |  | 
CC[Si](CC)(CC)O[C@@H]1C[C@H](C)C[C@@H]2[C@@H]1C[C@H](O[Si](C)(C)C(C)(C)C)[C@@H]1[C@](C)(CO)C[C@H](O)C[C@@]21C [Example 1] | 97.1 ± 2.49 |  | IC50 [2]: 21 ± 1.7 µM; Ki [3]: 0.59 ± 0.05 µM; IC50 [3]: 0.43 ± 0.04 µM; inhibition at 40 µM [4]: 11%
C[C@H]1C[C@@H](O)[C@H]2C[C@H](O[Si](C)(C)C(C)(C)C)[C@@H]3[C@](C)(CO)C[C@H](O)C[C@@]3(C)[C@@H]2C1 [Example 4] |  | 25.1 | 
CCOC(=O)C=CC12CCC(C)(C1CO[Si](C(C)C)(C(C)C)C(C)C)C2(C)C (stereo not shown) [Example 5] | 92.7 ± 1.4 |  | IC50 [2]: 28 ± 4.2 µM; Ki [3]: 2.6 ± 0.1 µM; IC50 [3]: 0.93 ± 0.04 µM; inhibition at 40 µM [4]: 14%
CC(C)[Si](OCCCC#CCO)(C(C)C)C(C)C [Example 10] |  | 35.4 ± 2.18 | 
CSC(C)(CO[Si](C(C)C)(C(C)C)C(C)C)S(=O)(=O)c1ccc(C)cc1 (stereo not shown) [Example 11] |  | 33.7 ± 4.78 | 
